Source: paper PMC9636582 (The Journal of Biological Chemistry, 2022)

Tests used:
[1] = molecular target: T1, VP16-PPARδ / GAL4-SRC-1 (Homo sapiens, UniProt Q03181); assay: mammalian two-hybrid assay, VP16-PPARδ and coactivator GAL4-SRC-1; assay type: cell-based; conditions: 30 μM fatty acids, 100 nM GW1516, HEK293 cells, Fig. 3A
T1 construct: expressed in transfected cells; host or cells: HEK293
T1 sequence (Q03181 1-441): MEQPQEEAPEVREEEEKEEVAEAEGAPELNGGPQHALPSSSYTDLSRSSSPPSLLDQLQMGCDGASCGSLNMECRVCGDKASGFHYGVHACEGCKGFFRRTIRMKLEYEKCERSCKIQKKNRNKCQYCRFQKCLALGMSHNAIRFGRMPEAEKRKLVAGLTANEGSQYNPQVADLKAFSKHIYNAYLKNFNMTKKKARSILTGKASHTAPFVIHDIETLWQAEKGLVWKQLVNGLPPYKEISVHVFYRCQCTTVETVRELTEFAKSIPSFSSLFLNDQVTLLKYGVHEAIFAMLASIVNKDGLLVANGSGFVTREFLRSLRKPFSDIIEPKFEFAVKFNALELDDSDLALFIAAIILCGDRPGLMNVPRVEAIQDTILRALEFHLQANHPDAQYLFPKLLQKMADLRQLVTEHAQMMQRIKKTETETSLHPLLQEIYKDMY
T1 sequence (Q15788 595-771 partner limits assumed): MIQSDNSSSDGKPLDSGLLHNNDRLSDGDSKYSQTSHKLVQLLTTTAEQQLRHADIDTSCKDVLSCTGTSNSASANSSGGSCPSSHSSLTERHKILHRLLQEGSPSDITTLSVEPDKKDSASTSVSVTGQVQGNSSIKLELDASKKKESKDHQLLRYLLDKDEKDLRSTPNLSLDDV

[2] = molecular target: T2, GAL4-PPARα LBD (Homo sapiens, UniProt Q07869); assay: GAL4-PPARα LBD luciferase reporter assay in HEK293 cells; assay type: cell-based; conditions: GAL4-PPARα LBD, calculated from luciferase activity with Quest Graph EC50 Calculator
T2 construct: chimeric receptors containing the LBD of various NRs; expressed in transfected cells; host or cells: HEK293
T2 sequence (Q07869 239-466 limits assumed): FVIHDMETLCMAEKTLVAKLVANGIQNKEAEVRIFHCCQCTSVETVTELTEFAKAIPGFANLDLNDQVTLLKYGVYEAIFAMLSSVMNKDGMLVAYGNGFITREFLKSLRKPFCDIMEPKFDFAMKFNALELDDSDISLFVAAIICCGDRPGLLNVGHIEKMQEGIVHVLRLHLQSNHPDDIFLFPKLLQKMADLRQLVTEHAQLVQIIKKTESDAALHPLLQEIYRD

[3] = molecular target: T3, full-length PPARδ (Homo sapiens, UniProt Q03181); assay: full-length PPARδ PPRE luciferase reporter assay in HEK293 cells; assay type: cell-based; conditions: Fig. 1C
T3 construct: expressed in transfected cells; host or cells: HEK293
T3 sequence (Q03181 1-441): T1 sequence (Q03181 1-441)
Text: Luciferase activities were normalized to β-galactosidase activities.

[4] = tested on: human intestinal organoids; assay: fatty acid β-oxidation activity in living organoids (FAOBlue); assay type: cell-based; conditions: organoids pretreated with 500 μM oleic acid 48 h, then 1 μM GW1516 or 30 μM fatty acids 24 h
[5] = tested on: human intestinal organoids; assay: intracellular triglyceride in human intestinal organoids; assay type: cell-based; conditions: organoids pretreated with 500 μM oleic acid 48 h, then 1 μM GW1516 or 30 μM fatty acids 24 h
[6] = molecular target: full-length PPARα (Homo sapiens, UniProt Q07869); conditions: PPRE luciferase reporter, HEK293 cells, Fig. 1C
[7] = molecular target: T4, VP16-PPARα / GAL4-NCoR (Homo sapiens, UniProt Q07869); assay: mammalian two-hybrid assay, VP16-PPARα and corepressor NCoR; assay type: cell-based; conditions: 30 μM fatty acids, HEK293 cells, Fig. 3D
T4 construct: expressed in transfected cells; host or cells: HEK293
T4 sequence (Q07869 1-468): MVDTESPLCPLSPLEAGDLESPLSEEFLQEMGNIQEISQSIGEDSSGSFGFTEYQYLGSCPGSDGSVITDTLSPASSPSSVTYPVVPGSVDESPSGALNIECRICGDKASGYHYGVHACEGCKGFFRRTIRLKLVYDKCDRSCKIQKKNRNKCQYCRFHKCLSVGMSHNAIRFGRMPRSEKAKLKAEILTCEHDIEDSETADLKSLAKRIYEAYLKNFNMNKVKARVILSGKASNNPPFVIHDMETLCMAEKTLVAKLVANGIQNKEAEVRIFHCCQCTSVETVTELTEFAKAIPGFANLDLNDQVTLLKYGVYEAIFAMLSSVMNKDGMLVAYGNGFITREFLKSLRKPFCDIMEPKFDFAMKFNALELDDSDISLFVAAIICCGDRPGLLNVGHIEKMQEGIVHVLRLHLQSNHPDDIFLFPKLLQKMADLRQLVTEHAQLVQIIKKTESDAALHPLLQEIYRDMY

[8] = molecular target: T5, VP16-PPARδ / GAL4-NCoR (Homo sapiens, UniProt Q03181); assay: mammalian two-hybrid assay, VP16-PPARδ and corepressor NCoR; assay type: cell-based; conditions: 30 μM fatty acids, HEK293 cells, Fig. 3C
T5 construct: expressed in transfected cells; host or cells: HEK293
T5 sequence (Q03181 1-441): T1 sequence (Q03181 1-441)

[9] = tested on: human intestinal organoids; assay: PPARδ target gene mRNA expression in human intestinal organoids (RT-qPCR); assay type: cell-based; conditions: 1 μM GW1516 or 30 μM fatty acids for 24 h

recruitment of coactivator SRC-1 to PPARδ [1]	EC50 [2] [µM]	transactivation of full-length PPARδ (in words) [3]	transactivation of full-length PPARα (in words) [6]	interaction between PPARα and corepressor NCoR [7]	interaction between PPARδ and corepressor NCoR [8]	SMILES	fatty acid β-oxidation activity [4]	intracellular triglyceride levels [5]	expression of PPARδ target genes (CPT1A, HMGCS2, PDK4, ACSL1) [9]
not	11	not	activated almost equally			CCCCC/C=C\C/C=C\C/C=C\CCCCC(=O)O [GLA, γ-linolenic acid, reference compound]	not	not	
induced coactivator-recruitment	4.14	activated PPARδ potently		reduced the interaction	reduced the interaction	CCCCCC(=O)CCC=CCC=CCCCCC(=O)O [γKetoD, 13-oxo-cis-6,cis-9-octadecadienoic acid]	enhanced fatty acid β-oxidation	reduced intracellular triglyceride accumulation	increased the expression of PPARδ target genes
induced coactivator-recruitment	2.84	activated PPARδ potently		reduced the interaction	reduced the interaction	CCCCCC(O)CCC=CCC=CCCCCC(=O)O (stereo not drawn) [γHYD, 13-hydroxy-cis-6,cis-9-octadecadienoic acid]	enhanced fatty acid β-oxidation	reduced intracellular triglyceride accumulation	increased the expression of PPARδ target genes
